This is an account of results in patent publication US10966940B2, “Methods for the treatment of tinnitus induced by cochlear excitotoxicity” (INSTITUT NATIONAL DE LA SANTE ET DE LA RECHERCHE MEDICALE …, priority 2004, dated 2021).

The test system of data set [1] is guinea pigs. The data set can be described thus: ESA noise trauma model: ensemble spontaneous activity of the cochlear nerve. The data set is classed as in vivo, guinea pig. The following applies: for regular ESA peak centered at 900 Hz to 1 kHz: treated ear; for ESA spectral peak centered at 200 to 250 Hz (tinnitus): 50 microM in 0.7% hyaluronic acid gel, round window. The method, then: We developed therefore an animal model with guinea pigs that were exposed to intensive noise, producing acute acoustic trauma, and whose ESA was recorded to control for the absence or presence of tinnitus (“ESA noise trauma model”). The possibility to record tinnitus by electrophysiological tests provides an excellent tool for evaluating the therapeutic benefits of pharmaceutical compounds in suppressing tinnitus. The development of the ESA noise trauma model required extensive experimentation with different noise trauma protocols as well as the development and testing of specific measurement tools for extended observation periods in vivo.
The experiment was performed in two stages. First, guinea pigs were exposed to intense noise stimulation in order to provoke acute acoustic trauma (day 0). Auditory thresholds and ESA were determined and then followed further by repeated electrophysiological measurements. If persisting tinnitus could still be detected after at least 5 days, an NMDA receptor antagonists (ketamine or 7-CK) was applied in a hyaluronic acid formulation onto the round window membrane of the cochlea. […] After treatment with the NMDA receptor antagonists, electrophysiological measurements of hearing thresholds and ESA continued for at least 10 days. The primary endpoints of the study were to test whether the pharmacological treatment could suppress tinnitus even after its onset, and whether such treatment effect was persisting or not. As a control, contralateral ears were exposed to the same noise exposure and followed by electrophysiology.
Experiments were performed on adult pigmented guinea pigs (250 to 300 grams at study begin). During experiments, animals were caged individually. Outside the experiments, the animals received water and nutrition ad libidum. […] In two contralateral left ears, tinnitus was observed, so that they could be used as a control group.
Acoustic trauma was induced by a continuous pure tone of 6 kHz generated by a waveform synthesizer (Hewlett-Packard 8904A). […] Sound level was measured using a calibrated Bruel and Kjaer microphone (4314) and a Bruel and Kjaer calibrating amplifier (2606).
A teflon-coated platinum electrode implanted onto the round window membranes of both cochleas (with reference electrodes placed in a neck muscle) measured the ESA and the compound action potential of the auditory nerve (CAP). […]
The ESA was recorded from the platinum wire placed in the round window niche. […]
The ESA was measured just before acute acoustic trauma and 20 minutes following noise exposure on day 0, and then repeatedly for at least 10 days as described above. […] Subsequently, ESA was measured again on the first day after treatment (T+1) as well as 10 days after treatment (T+10). […]

The test system of data set [2] is Long-Evans rats. Put plainly: Behavioral (active avoidance) model of tinnitus induced by cochlear excitotoxicity provoked by acute acoustic trauma. In kind it is in vivo, rat. The method, then: We developed and tested an animal model of tinnitus induced by cochlear excitotoxicity, which was provoked by acoustic trauma. […] These considerations mean for example that more animals are required to obtain a sufficient number of tinnitus cases for study and to permit observation of tinnitus over time. As it is unclear whether a case of tinnitus induced by cochlear excitotoxicity is to last or not, it is advisable to conduct studies in its early stages.
The experiments were performed in two stages. First, the hearing loss following acute acoustic trauma as well as the incidence of tinnitus were evaluated with no therapeutic compound administered.
During experiments, animals were caged individually at a constant temperature with a day/night cycle of 12/12 hours. All behavioral tests were performed in the dark phase, the usual period of animal activity, for every animal individually at about the same time each day. Outside the experiments, the animals received water and nutrition ad libidum. A total of 60 animals were used: 30 for the first stage (of which 25 were tested by behavioral techniques and 5 by electrophysiology), and 30 for the second stage with 10 for each pharmaceutical compound tested.
Acoustic trauma was induced by a continuous pure tone of 6 kHz generated by a waveform synthesizer (Hewlett-Packard 8904A). The animals were anesthetized and exposed to 130 dB sound pressure level (SPL) for 20 minutes, which was routed through a programmable attenuator and presented to the ears in free field via a JBL 075 earphone positioned 10 cm in front of the animal's head. Sound level was measured using a calibrated Bruel and Kjaer microphone (4314) and a Bruel and Kjaer calibrating amplifier (2606).
Behavioral conditioning and testing Animals were conditioned to achieve active avoidance (Guitton et al., J. of Neuroscience 23 (9): 3944-3952 (2003)). Behavioral testing consisted of the performance of a task whenever a sound was produced in a conditioning box with an electrical floor and a climbing pole. […] The unconditional stimulus consisted of an electric shock to the feet of the animals (3.7 mA) during maximally 30 seconds. Interstimulus intervals were 1 second. The electric shocks were stopped by the investigator once the animal correctly climbed onto the pole. Intervals between trials were at least one minute long.
The score was defined as the animal's performance, measured by the number of cases when it climbed correctly onto the pole in response to the sound. As soon as an animal had reached a score of at least 80% in three consecutive sessions, it was considered successfully conditioned and employed in the experiments.
Experiments were conducted daily with measurements of both score and false positive responses during one session of 10 minutes with 10 trials in total. False positive responses were climbings onto the pole between trials without any acoustic stimulation, i.e. during periods of silence. They can be interpreted as the perception of tinnitus, as the animals are performing the task of climbing onto the pole as if they were hearing the stimulus (Guitton et al., J. of Neuroscience 23 (9): 3944-3952 (2003)). Sound stimuli were randomized, and electrical footshocks were only delivered if the animals didn't climb onto the pole in response to sound.
Animals were anaesthetized with a single-dose i.p. injection of 0.3 ml/kg of pentobarbital at 6% (Sanofi) and operated under aseptic conditions right after the first behavioral testing (day 0). The two bullae were opened through a posterior auricular surgical procedure (dorsal approach). After exposure of the two cochleas, gelfoam (Gelita tampon, B. Braun Medical AG) impregnated with 2.5 μl artificial perilymph containing the pharmaceutical compounds was placed on the each of the round windows of the two cochleas. The concentration of all three pharmaceutical compounds used was 50 μM.

Data set [3] deals with guinea pigs. Put plainly: CAP audiogram (hearing threshold) in ESA noise trauma model. The data set is classed as in vivo, guinea pig. The following applies: local administration onto round window membrane. The method, then:
A teflon-coated platinum electrode implanted onto the round window membranes of both cochleas (with reference electrodes placed in a neck muscle) measured the ESA and the compound action potential of the auditory nerve (CAP). The surgery was performed using a posterior auricular surgical procedure (dorsal approach) prior to noise exposure. The reference electrode and the round window electrode were soldered to a plug fixed on the skull using dental cement (Unifast Trad, GC Corporation).
The CAP was measured concomitantly with ESA measurements using the same electrode. Tone bursts (with a duration of 9 ms and a rise/fall cycle of 1 ms, 10 per second) generated by an arbitrary function generator (LeCroy Corp., model 9100R) were applied to the animal's ear in free filed via a JBL 075 earphone. CAP audiograms were obtained by varying burst levels from 0 to 100 dB SPL in steps of 5 dB at the frequencies 2, 4, 6, 8, 10, 12, 16, 20, and 26 kHz. Auditory nerve responses were amplified (Tektronic TM 503; gain 2000), filtered (3.5 kHz low pass) and averaged on a PC (Dimension Pentium, Dell). CAP amplitudes were measured peak-to-peak between the first negative depression N1 and the subsequent positive wave P1. The CAP threshold was defined as the sound intensity (in dB SPL) needed to elicit a measurable response (greater than 5 μV). […]

Data set [4] relates to PCP binding site of the NMDA receptor. Conditions: higher affinity than (R)-ketamine; cited from earlier work.
The test system of data set [5] is NMDA receptors. Conditions: local administration; cited from earlier work.
Data set [6] has as its system salicylate-induced tinnitus. The following applies: cited from earlier work; for number of false positives after delivery to the cochleas via the round window membrane: salicylate-treated animals; for false positive responses (jumps in absence of sound) induced by the substance: tinnitus induction.
Data set [7] deals with tinnitus. The following applies: systemic administration; cited from earlier work.
The conditions of data set [8]: in vivo; cited from earlier work.
In data set [9] the test system is sensory outer hair cells (OHC) and inner hair cell (IHC) synaptic complex. Conditions: 350 mg/kg i.p. twice a day for 2 days.
Procedure: After decapitation of the rats under deep anaesthesia (pentobarbital 50 mg/kg), the cochleas were removed from the temporal bone and perfused with a fixative solution of 2.5% glutaraldehyde in 0.1 M phosphate-buffered saline (PBS), pH 7.3. They were then processed either for scanning (SEM) or transmission electron (TEM) microscopy. For SEM, the otic capsule was dissected out and the stria vascularis, tectorial, and Reissner's membranes were removed. After rinsing in PBS (pH 7.3) the samples were dehydrated in a graded series of ethanol (30-100%), critical point-dried in CO2, coated with gold palladium, and examined using a Hitachi S4000 microscope. For TEM, the cochleas were postfixed in a 1% aqueous solution of osmium tetroxide for 2 hours, rinsed in phosphate buffer, dehydrated in a graded series of ethanol (30-100%), and embedded in Epon resin. Transverse ultrathin sections of the organ of Corti were taken from the apical half of the cochlea. The sections, mounted on formvar-coated or mesh grids, were stained with uranyl acetate, and lead citrate and examined using a Hitachi 7100 microscope.
Data set [10] has as its system NR1 subunit of the cochlear NMDA receptor. The following applies: 350 mg/kg i.p. twice over 24 hours; sample after 24 hours.
Procedure: The salicylate dose used is known to induce tinnitus (Guitton et al., J. of Neuroscience 23 (9): 3944-3952 (2003)). Another group of 3 animals served as control and was injected i.p. with a NaCl 0.9% solution of the same volume as salicylate treated animals. Samples were obtained after 24 hours in the salicylate and control groups and 24 hours respectively 5 days post incident for the acoustic trauma group.
Tissues were harvested in cold PBS and homogenized in sample buffer, and the lysates were centrifuged to remove detergent-insoluble material and separated on a 10% SDS-PAGE in Tris/Tricine. After gel electrophoresis, proteins were transferred electrophoretically to nitrocellulose membranes (PVDF transfer membrane Hybond-P, Amersham Pharmacia Biotech, USA). Blots were first incubated with a primary anti-antibody against the NMDA NR1 receptor subunit (1/1000 dilution; rabbit polyclonal antibody, Chemicon international, USA), and with a primary antibody anti-actin (1/50000 dilution, mouse monoclonal anti-β-actin, Sigma, USA) overnight at 4° C. To verify that the molecular weight of the NR1 subunit is identical in both brain and cochlea, immunoblots from the brain of control animals were performed. […] Image scanning of Western blots was then performed for semi-quantification of expression levels of NR1 and actin proteins using Biorad Fluor-S software (Quantity one).

As for `CN[C@@]1(c2ccccc2Cl)CCCCC1=O` (stereo in doubt) [S-(+)-Ketamine, 2-(2-chlorophenyl)-2-(methylamino)-cyclohexanone], the “regular ESA peak centered at 900 Hz to 1 kHz” value is “fully recovered” in [1] (10 days after treatment (T+10)) and “still appeared, yet diminished” in [1] (day T1 after treatment). In addition, the “ESA spectral peak centered at 200 to 250 Hz (tinnitus)” value in [1] (day T1 after treatment, given after onset of persisting tinnitus) is on record as “completely disappeared”; in [1] (day T10 after treatment), “remained absent”. The “number of false positives” value was determined as 0.22±0.22 false positives in data set [2] (group 1 (no increase), days 0 and 1); 0.2±0.2 false positives in data set [2] (group 2 (reversible increase), day 0); 5±0.48 false positives in [2] (group 2 (reversible increase), day 1). For the same compound, the “recovery of behavioral score after trauma, in words” value in [2] (local administration to round window membrane, 50 μM) was “improvement was slower than in untreated animals”. For the same compound, the “effect on tinnitus (false positives), in words” value in data set [2] (local administration to round window membrane, 50 μM, before acoustic trauma) is “only cases of transient tinnitus could be observed”. The “number of animals with no increase in false positives (group 1)” value in data set [2] (of 10 animals per compound) was 5. In data set [2] (of 10 animals per compound), the “number of animals with only reversible increase in false positives (group 2, transient tinnitus)” value is reported as 5. Also, in data set [2] (rat, in vivo), the “average score at stabilization” value is given as 89%±2.3. In addition, the “permanent threshold shift (PTS, hearing loss) after treatment” value in data set [3] is on record as “not changed”. The “affinity relative to (R)-ketamine” value in data set [4] was 3-4 fold.
Regarding `N[C@H](CCCP(=O)(O)O)C(=O)O` [D-AP5, D-2-amino-5-phosphonopentanoic acid], the “functional recovery and regrowth of auditory dendrites” value in data set [5] was “delayed the functional recovery and the regrowth of auditory dendrites”.
Take `C[C@]12N[C@H](Cc3ccccc31)c1ccccc12` [MK-801, dizocilpine]: the “number of false positives after delivery to the cochleas via the round window membrane” value in data set [6] is “decreased significantly”.
Consider `C1C2CC3CC1CC(C2)C3` [adamantane], for which, in [7], the tinnitus during treatment entry is given as “reduction in tinnitus during treatment”.
For the compound `CCN(CC)CCn1c(=O)c(Cc2ccc(OC)cc2)nc2ccccc21` [caroverine], the “intracochlear concentration, local versus systemic administration” value in [8] is “higher intracochlear concentrations”.
Regarding `CC1CCCCC1(c1cccs1)N1CCCCC1` (stereo not drawn) [gacyclidine], the “number of false positives after delivery to the cochleas via the round window membrane” value in [6] is recorded as “decreased significantly”.
For the compound `Cc1cccc(Nc2ccccc2C(=O)O)c1C` [mefenamate], the “false positive responses (jumps in absence of sound) induced by the substance” value in data set [6] is reported as “increased the number of false positive responses”.
For the compound `O=C([O-])c1ccccc1O.[Na+]` [salicylate, sodium salicylate], in data set [9] (SEM), the “stereocilia of OHC and IHC” value is given as “intact”. For the same compound, the “ultrastructure of the IHC synaptic complex” value in data set [9] (TEM) is recorded as “No ultrastructural abnormalities”. In addition, in data set [6], the “false positive responses (jumps in absence of sound) induced by the substance” value was “significant increase”. Moreover, the “NR1 NMDA receptor subunit expression, higher than control animals” value in data set [10] is 4%.
